According to patent US20130059888A1:
Structures can show the parent of a compound that is named as a salt. Where two headings read alike, the source gives them in different places.

Tests used:
[1] = tested on: Alzheimer-type dementia patients; settings: cited from earlier work; for Improving effect on the behavioral and psychological symptoms such as agitation: solely administered, Am. J. Geriatr. Psychiatry 2005
[2] = tested on: Alzheimer-type dementia patients
Description: Patient. […] After 11 months from the start of the donepezil hydrochloride administration, concomitant administration of sustained release tablets of sodium valproate (twice a day after breakfast and dinner with 200 mg tablet×2) was started.
Patient. […] After 35 months from the start of the donepezil hydrochloride administration, concomitant administration of sustained release tablets of sodium valproate (twice a day after breakfast and dinner with 200 mg tablet×2) was started.
Patient. […] Concomitant administration of sustained release tablets of sodium valproate (twice a day after breakfast and dinner with 200 mg tablet×2) was started 48 months after the start of the donepezil hydrochloride administration. […] Sustained release tablets of sodium valproate (200 mg tablet×3) were administered from eight months after the start of the concomitant administration.

Alzheimer-type dementia = settings: donepezil hydrochloride alone; cited from earlier work

CCCC(CCC)C(=O)[O-].[Na+] [sodium valproate]
Improving effect on the behavioral and psychological symptoms such as agitation [1]: no improving effect

CCCC(CCC)C(=O)O [valproic acid]
Side reactions ([1]; general statement on valproic acid and a salt thereof): little side reactions such as sleepiness
Improving effect on the behavioral and psychological symptoms such as agitation [1]: does not exhibit any improving effect

COc1cc2c(cc1OC)C(=O)C(CC1CCN(Cc3ccccc3)CC1)C2 (stereo not drawn) [donepezil hydrochloride]
Problem behaviors ([2]; Example 1 patient, donepezil alone 5 mg once a day, two months from start): did not subside
Symptoms observed ([2]; Example 2 patient, donepezil alone 5 mg once a day, two months after start): symptoms of incontinentia and the like were observed
Symptoms observed ([2]; Example 2 patient, donepezil alone, four months after start): visual hallucination, incontinentia, aggressive attitude and the like were observed
Symptoms observed ([2]; Example 3 patient, donepezil alone 5 mg once a day, 15 months after start): dressing apraxia was observed
Symptoms observed ([2]; Example 3 patient, donepezil alone, 23 months after start): visual hallucination, soliloquy, emotional attitude, dressing apraxia, and stereotypy were observed
Symptoms observed ([2]; Example 3 patient, donepezil alone, 25 months after start): visual hallucination, delusion of persecution and the like
Symptoms observed ([2]; Example 4 patient, donepezil alone 5 mg once a day, two months after start): visual hallucination was not observed, but they spoke only their events in the old days and showed stereotypy
Inspection findings ([2]; Example 5 patient, donepezil alone 5 mg once a day, 24 months after start): atrophy of the hippocampus was marked
Symptoms observed ([2]; Example 5 patient, donepezil alone, 41 months after start): refusal of oral administration of medicaments, soliloquy and dressing apraxia
Cognitive disorder ([2]; Example 5 patient, donepezil alone, thirty nine months after start): advanced
Duration of improving action against the cognitive symptoms (Alzheimer-type dementia): about one year at the longest
Effect on the cognitive symptoms (Alzheimer-type dementia): certain effects for retarding onset or relieving of the cognitive symptoms
